These results are taken from BindingDB's records for doi:10.1021/jm990235p (Va Medical Center, 1999).

A word on the IC50: it is the concentration that gives 50% inhibition. Read a high IC50 as weaker potency.

The target of the assay is aldehyde dehydrogenase (Saccharomyces cerevisiae). As to the kind of experiment: In vitro inhibitory activity against yeast Aldehyde dehydrogenase.

As to `CCOC(=O)N(OC(=O)N(CC)CC)S(=O)(=O)c1ccccc1` [ethyl [(diethylamino)carbonyl]oxy(phenylsulfonyl)carbamate], the IC50 came to 169 µM.
